Test results taken from EP3150203B1, “COMPOUNDS WITH (1E,6E)-1,7-BIS-(3,4- DIMETHOXYPHENYL)-4,4-DISSTITUTED-HEPA-1,6-DIENE-3,5-DI-ONE STRUCTURAL SCAFFOLD,THEIR BIOLOGICAL ACTIVITY, AND USES THEREOF” (Allianz Pharmascience Ltd, priority 2012, dated 2013).
Read-outs that look alike come from different tables or passages of the source.

Key:
[1] = molecular target: T1, Androgen Receptor (AR) (Homo sapiens, UniProt P10275, H875Y, form not given); assay: Western Blot analysis of AR protein expression in CWR22Rv1 cells; assay type: cell-based; conditions: for IC50: Western blotting
T1 sequence (P10275 1-920 H875Y): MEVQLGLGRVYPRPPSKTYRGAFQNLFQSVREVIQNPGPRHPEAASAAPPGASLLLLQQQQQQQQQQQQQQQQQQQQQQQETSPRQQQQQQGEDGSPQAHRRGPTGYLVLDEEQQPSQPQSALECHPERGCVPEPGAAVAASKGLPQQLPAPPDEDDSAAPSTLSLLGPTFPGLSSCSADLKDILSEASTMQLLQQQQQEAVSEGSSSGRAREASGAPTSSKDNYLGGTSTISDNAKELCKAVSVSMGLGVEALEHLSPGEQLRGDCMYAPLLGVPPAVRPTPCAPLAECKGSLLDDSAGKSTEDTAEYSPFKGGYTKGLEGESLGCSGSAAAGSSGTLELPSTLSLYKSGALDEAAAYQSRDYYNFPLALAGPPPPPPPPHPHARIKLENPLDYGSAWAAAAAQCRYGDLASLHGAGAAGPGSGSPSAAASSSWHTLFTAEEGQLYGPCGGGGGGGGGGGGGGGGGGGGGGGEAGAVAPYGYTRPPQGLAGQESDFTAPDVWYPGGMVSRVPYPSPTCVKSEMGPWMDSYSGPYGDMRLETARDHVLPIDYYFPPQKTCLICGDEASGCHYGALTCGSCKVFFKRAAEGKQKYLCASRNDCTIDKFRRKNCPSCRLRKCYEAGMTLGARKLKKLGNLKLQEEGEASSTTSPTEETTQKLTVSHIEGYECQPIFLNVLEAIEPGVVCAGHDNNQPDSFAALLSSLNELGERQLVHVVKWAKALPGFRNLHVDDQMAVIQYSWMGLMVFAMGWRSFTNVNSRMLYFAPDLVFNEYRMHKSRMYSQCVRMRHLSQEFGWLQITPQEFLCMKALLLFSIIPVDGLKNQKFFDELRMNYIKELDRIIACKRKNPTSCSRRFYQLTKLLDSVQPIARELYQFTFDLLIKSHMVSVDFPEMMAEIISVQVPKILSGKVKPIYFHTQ

[2] = test system: CWR22Rv1 cells (human prostate cancer); assay: MTT cell growth assay, CWR22Rv1 cells; assay type: cell-based; conditions: 5 days, read-out: Inhibition of Tumor cells growth IC50
Method: The MTT cell proliferation assay was applied in the present invention to detect the capability of compounds to suppress or inhibit prostate cancer cells growth. […] Briefly, 1 x 10^3 LNCaP or CWR22Rv1 cells suspended in complete medium were plated into each well of a 96-well Microtest III tissue culture plate (Falcon, NJ). Two days later, the medium was replaced with RPMI-1640 medium containing 10% charcoal/dextran-deprived FBS (hormone-deprived fetal bovine serum). Testing compounds were added to the medium at indicated concentrations with or without 1 nM DHT and cells were cultured for 5 days in an incubator (at 37 °C). MTT substrate solution (5 mg/ml in PBS) in 1/10 of volume was added to the cells in each well at 2 hours before harvesting. After 2 hour incubation, the plates were centrifuged (10 min at 1,000 rpm) and the supernatant from each well was carefully removed. A 100 µl of lysis buffer (50% dimethyl formamide, 5% sodium dodecyl sulphate, 0.35 M acetic acid, and 50 mM HCl) was added to each well to lyse the cells and dissolved tetrazolium in each well. The relative quantity of enzyme activity from each well was measured based on absorbance read at a wavelength of 450 nm using a Bio-RAD BenchMark microplate reader. Data derived from the MTT assay were also verified by the actual cell count and cell morphology on a separate plate set up in parallel.
For inhibition of tumor cell growth, in vitro, cells were growth in the presence of testing compounds for 5 days, and the cell growth was assayed by standard MTT assay. […] Table 2: Biological activity of Compounds and Derivatives having (1E, 6E)-1,7-bis-(3,4-dimethoxyphenyl)-4,4-disubstituted-hepta-1,6-diene-3,5-dione OR (1E, 10E)-1,11-bis(substituted phenyl)- 6,6-disubstituted undeca-1,3,8,10-tetraene-5,7-dione structural scaffold

[3] = Stability in acidic condition (0.1 N HCl, 37°C); assay type: physicochemical
Source text: (§1) Also, at 24 hr where stability of JM49 was only 4%, while its derivative Compound 6 had improved to 79%. Similar improvements in stability (from 6- 24 hr) were also observed in the conditions of rat plasma (Table 4) and human plasma (Table 5). […] Table 3. Relative compound concentration changes (stability) in acidic condition

[4] = Stability in rat plasma (37°C); assay type: in vitro ADME
Source text: as §1

[5] = Stability in human plasma (37°C); assay type: in vitro ADME; conditions: result in words (Table 5 not given)
Source text: as §1

[6] = 48 h post-incubation, read-out: Reduction of AR expression IC50 (µM) 48 h
[7] = 24 h post-incubation, read-out: Reduction of AR expression IC50 (µM) 24 h

## COc1ccc(/C=C/C(=O)C(C)(CC2CC2)C(=O)/C=C/c2ccc(OC)c(OC)c2)cc1OC [Compound 1]
[1]; [6]
  IC50: 2.1 µM
[2]
  IC50: 2.4 µM

## COc1ccc(/C=C/C(=O)C(C)(CC2CCC2)C(=O)/C=C/c2ccc(OC)c(OC)c2)cc1OC [Compound 2]
[2]; Homo sapiens, 120 h
  IC50: > 7.5 µM

## COc1ccc(/C=C/C(=O)C(C)(CC2CCCC2)C(=O)/C=C/c2ccc(OC)c(OC)c2)cc1OC [Compound 4]
[2]; Homo sapiens, 120 h
  IC50: 2.6 µM

## COc1ccc(/C=C/C(=O)C(C)(CC2CCCCC2)C(=O)/C=C/c2ccc(OC)c(OC)c2)cc1OC [Compound 5]
[1]; [6]
  IC50: 4 µM
[2]
  IC50: 4.6 µM

## CCN(CC)C(=O)CC(C)(C(=O)/C=C/c1ccc(OC)c(OC)c1)C(=O)/C=C/c1ccc(OC)c(OC)c1 [Compound 6]
[2]; Homo sapiens, 120 h
  IC50: 1.5 µM
[3]; 0 h
  Concentration change (%) (stability) in acidic condition: 100%
[3]; 2 h
  Concentration change (%) (stability) in acidic condition: 100%
[3]; 4 h
  Concentration change (%) (stability) in acidic condition: 99%
[3]; 24 h
  Concentration change (%) (stability) in acidic condition: 79%
[3]; 48 h
  Concentration change (%) (stability) in acidic condition: 56%
[4]; 0 h
  Concentration change (%) (stability) in rat plasma: 100%
[4]; 1 h
  Concentration change (%) (stability) in rat plasma: 98%
[4]; 2 h
  Concentration change (%) (stability) in rat plasma: 96%
[4]; 6 h
  Concentration change (%) (stability) in rat plasma: 93%
[4]; 24 h
  Concentration change (%) (stability) in rat plasma: 77%
[4]; 48 h
  Concentration change (%) (stability) in rat plasma: 51%
[5]
  stability in human plasma: unexpectedly and dramatically improved

## COc1ccc(/C=C/C(=O)C(C)(CC(=O)N(C)C)C(=O)/C=C/c2ccc(OC)c(OC)c2)cc1OC [Compound 7]
[2]; Homo sapiens, 120 h
  IC50: 2 µM
[3]; 0 h
  Concentration change (%) (stability) in acidic condition: 100%
[3]; 1 h
  Concentration change (%) (stability) in acidic condition: 99%
[3]; 2 h
  Concentration change (%) (stability) in acidic condition: 99%
[3]; 4 h
  Concentration change (%) (stability) in acidic condition: 98%
[3]; 24 h
  Concentration change (%) (stability) in acidic condition: 81%
[3]; 48 h
  Concentration change (%) (stability) in acidic condition: 58%
[4]; 0 h
  Concentration change (%) (stability) in rat plasma: 100%
[4]; 1 h
  Concentration change (%) (stability) in rat plasma: 101%
[4]; 2 h
  Concentration change (%) (stability) in rat plasma: 100%
[4]; 6 h
  Concentration change (%) (stability) in rat plasma: 101%
[4]; 24 h
  Concentration change (%) (stability) in rat plasma: 99%
[4]; 48 h
  Concentration change (%) (stability) in rat plasma: 86%
[5]
  stability in human plasma: unexpectedly and dramatically improved

## CCCCC(C)(C(=O)/C=C/c1ccc(OC)c(OC)c1)C(=O)/C=C/c1ccc(OC)c(OC)c1 [Compound 8]
[2]; Homo sapiens, 120 h
  IC50: 2.3 µM

## COc1ccc(/C=C/C(=O)C(C)(CC(=O)N2CCOCC2)C(=O)/C=C/c2ccc(OC)c(OC)c2)cc1OC [Compound 11]
[1]; [7]
  IC50: 2.2 µM

## COc1ccc(/C=C/C(=O)C(F)(CC2CC2)C(=O)/C=C/c2ccc(OC)c(OC)c2)cc1OC [Compound 13]
[2]; Homo sapiens, 120 h
  IC50: > 5 µM

## COc1ccc(/C=C/C(=O)C(F)(CC2CCC2)C(=O)/C=C/c2ccc(OC)c(OC)c2)cc1OC [Compound 14]
[2]; Homo sapiens, 120 h
  IC50: 3.6 µM

## COc1ccc(/C=C/C(=O)C(F)(CC2CCCC2)C(=O)/C=C/c2ccc(OC)c(OC)c2)cc1OC [Compound 15]
[2]; Homo sapiens, 120 h
  IC50: 3.2 µM

## COc1ccc(/C=C/C(=O)C(F)(CC2CCCCC2)C(=O)/C=C/c2ccc(OC)c(OC)c2)cc1OC [Compound 16]
[2]; Homo sapiens, 120 h
  IC50: 4 µM

## CCN(CC)C(=O)CC(F)(C(=O)/C=C/c1ccc(OC)c(OC)c1)C(=O)/C=C/c1ccc(OC)c(OC)c1 [Compound 17]
[2]; Homo sapiens, 120 h
  IC50: > 7.5 µM

## COc1ccc(/C=C/C(=O)C(F)(CC(=O)N(C)C)C(=O)/C=C/c2ccc(OC)c(OC)c2)cc1OC [Compound 18]
[1]; [7]
  IC50: > 5 µM
[2]
  IC50: > 7.5 µM

## CCCCC(F)(C(=O)C=Cc1ccc(OC)c(OC)c1)C(=O)C=Cc1ccc(OC)c(OC)c1 (stereo not shown) [Compound 19]
[2]; Homo sapiens, 120 h
  IC50: 4.7 µM

## CCN(CC)C(=O)CC(Cl)(C(=O)/C=C/c1ccc(OC)c(OC)c1)C(=O)/C=C/c1ccc(OC)c(OC)c1 [Compound 20]
[2]; Homo sapiens, 120 h
  IC50: 4 µM

## COc1ccc(/C=C/C(=O)C(Cl)(CC(=O)N(C)C)C(=O)/C=C/c2ccc(OC)c(OC)c2)cc1OC [Compound 21]
[2]; Homo sapiens, 120 h
  IC50: > 7.5 µM

## CCOC(=O)CCC(C)(C(=O)/C=C/c1ccc(OC)c(OC)c1)C(=O)/C=C/c1ccc(OC)c(OC)c1 [Compound 22]
[1]; [7]
  IC50: 1.8 µM

## CCOC(=O)CCC(F)(C(=O)/C=C/c1ccc(OC)c(OC)c1)C(=O)/C=C/c1ccc(OC)c(OC)c1 [Compound 23]
[1]; [7]
  IC50: > 5 µM

## CCN(CC)C(=O)CC(C)(C(=O)C=CC=Cc1ccc(OC)c(OC)c1)C(=O)C=CC=Cc1ccc(OC)c(OC)c1 (stereo not shown) [Compound 32]
[1]; [7]
  IC50: 2.8 µM

## CCN(CC)C(=O)CC(C(=O)/C=C/c1ccc(OC)c(OC)c1)C(=O)/C=C/c1ccc(OC)c(OC)c1 [JM49]
[1]; various concentrations, Western Blot (FIG. 6)
  reducing endogenous AR expression: capable of reducing endogenous AR expression
[3]; 0 h
  Concentration change (%) (stability) in acidic condition: 100%
[3]; 1 h
  Concentration change (%) (stability) in acidic condition: 73%
[3]; 2 h
  Concentration change (%) (stability) in acidic condition: 56%
[3]; 6 h
  Concentration change (%) (stability) in acidic condition: 38%
[3]; 24 h
  Concentration change (%) (stability) in acidic condition: 4%
[4]; 0 h
  Concentration change (%) (stability) in rat plasma: 100%
[4]; 1 h
  Concentration change (%) (stability) in rat plasma: 68%
[4]; 2 h
  Concentration change (%) (stability) in rat plasma: 54%
[4]; 6 h
  Concentration change (%) (stability) in rat plasma: 27%
[4]; 24 h
  Concentration change (%) (stability) in rat plasma: 2%
[4]; 48 h
  Concentration change (%) (stability) in rat plasma: 0%
[5]
  stability in human plasma: chemically unstable

## COc1ccc(/C=C/C(=O)C(CC(=O)N(C)C)=C(O)/C=C/c2ccc(OC)c(OC)c2)cc1OC [JM77]
[3]; 0 h
  Concentration change (%) (stability) in acidic condition: 100%
[3]; 1 h
  Concentration change (%) (stability) in acidic condition: 14%
[3]; 2 h
  Concentration change (%) (stability) in acidic condition: 8%
[3]; 6 h
  Concentration change (%) (stability) in acidic condition: 0%
[3]; 24 h
  Concentration change (%) (stability) in acidic condition: 0%
[4]; 0 h
  Concentration change (%) (stability) in rat plasma: 100%
[4]; 1 h
  Concentration change (%) (stability) in rat plasma: 93%
[4]; 2 h
  Concentration change (%) (stability) in rat plasma: 88%
[4]; 6 h
  Concentration change (%) (stability) in rat plasma: 73%
[4]; 24 h
  Concentration change (%) (stability) in rat plasma: 27%
[4]; 48 h
  Concentration change (%) (stability) in rat plasma: 7%
[5]
  stability in human plasma: chemically unstable
